{
  "source": "patent US12226443B2",
  "about": "“Polyphenol composition and method of its use and manufacture in the treatment of metabolic disorders” (Vidya Herbs, Inc., priority 2018, dated 2025)",
  "assay": "DPPH scavenging assay",
  "conditions": "composition at 100 μg/ml",
  "protocol": "The free radical scavenging capacity of the composition was determined using DPPH scavenging assay (Braca et al. 2001). DPPH solution was prepared in 95% methanol. Freshly prepared DPPH solution was taken in test tubes and different concentration of the composition (20-100 μg/mL) were added and incubated for 20 min. The absorbance was read at 517 nm using a spectrophotometer. Blank was prepared containing the same volume of reaction mixture without any test samples. The percentage of scavenging was calculated using formula: % Scavenging=Ac−As/Ac×100 Where AC was the absorbance of the control (blank without extract) and As was the absorbance in the presence of the extract.",
  "data": [
    {"smiles": "O=C1O[C@H]([C@@H](O)CO)C(O)=C1O", "note": "[ascorbic acid]", "values": [
      {"measurement": "DPPH radical scavenging, maximum activity", "value": 96.71, "unit": "%"}
    ]}
  ]
}
